Our source for the Ki values is US7462625B2, “Gonadotropin-releasing hormone receptor antagonists and methods relating thereto” (Neurocrine Biosciences, Inc., priority 2000, dated 2008).

For the first experiment, the target named is T1, GnRH receptor (Homo sapiens, UniProt P30968).
T1 construct: expressed in transfected cells
T1 sequence (P30968 1-328): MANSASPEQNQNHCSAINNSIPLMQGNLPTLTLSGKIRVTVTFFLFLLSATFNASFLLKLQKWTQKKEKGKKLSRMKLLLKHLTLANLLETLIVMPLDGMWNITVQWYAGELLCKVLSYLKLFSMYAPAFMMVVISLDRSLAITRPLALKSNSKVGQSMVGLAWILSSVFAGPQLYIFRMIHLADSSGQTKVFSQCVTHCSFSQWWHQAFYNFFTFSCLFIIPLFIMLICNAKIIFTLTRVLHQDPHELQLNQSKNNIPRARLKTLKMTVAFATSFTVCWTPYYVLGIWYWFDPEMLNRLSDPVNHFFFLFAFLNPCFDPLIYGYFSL
The experiment in a line: GnRH receptor membrane binding assay.
Conditions: not given
As for the experimental part:
Radio-Iodination of GnRH Peptide
The GnRH analog is labeled by the chloramine-T method. […] The reaction is stopped by the addition of 60 μg sodium metabisulfite and the free iodine is removed by passing the iodinated mixture through a C-8 Sep-Pak cartridge (Millipore Corp., Milford, Mass.). The peptide is eluted with a small volume of 80% acetonitrile/water. […] The purified radioactive peptide is stored in 0.1% BSA/20% acetonitrile/0.1% TFA at −80° C. and can be used for up to 4 weeks.
GnRH Receptor Membrane Binding Assay
Cells stably, or transiently, transfected with GnRH receptor expression vectors are harvested, resuspended in 5% sucrose and homogenized using a polytron homogenizer (2×15 sec). Nucleii are removed by centrifugation (3000×g for 5 min.), and the supernatant centrifuged (20,000×g for 30 min, 4° C.) to collect the membrane fraction. The final membrane preparation is resuspended in binding buffer (10 mM Hepes (pH 7.5), 150 mM NaCl, and 0.1% BSA) and stored at −70° C. Binding reactions are performed in a Millipore MultiScreen 96-well filtration plate assembly with polyethylenimine coated GF/C membranes. […] The reaction is terminated after 90 minutes by application of vacuum and washing (2×) with phosphate buffered saline. Bound radioactivity is measured using 96-well scintillation counting (Packard Topcount) or by removing the filters from the plate and direct gamma counting. Ki values are calculated from competition binding data using non-linear least squares regression using the Prism software package (GraphPad Software).
`Cc1cccc(-c2c(C)n(Cc3c(F)cccc3F)c(=O)n(C[C@H](N)c3ccccc3)c2=O)c1F` [8-17]: the Ki is less than 100 nM.
On the same count and under the same terms, the result for `COc1cccc(-c2c(C)n(Cc3c(F)cccc3F)c(=O)n(CCN(C)CCc3ccccn3)c2=O)c1F` [9-24] reads less than 100 nM.

Still in this experiment, the particulars now being: GnRH receptor membrane binding assay, [125I]-labeled GnRH peptide; read-out: Ki.
On to `COc1cccc(-c2c(C)n(Cc3c(F)cccc3F)c(=O)n(CCN(C)Cc3ccccn3)c2=O)c1` [1-3], for which the Ki is less than 100 nM.
Regarding `CCN(CCc1ccccn1)CCn1c(=O)c(-c2cccc(OC)c2)c(C)n(Cc2c(F)cccc2F)c1=O` [1-10], the Ki is less than 100 nM.
The same measure, in the same setting: with `COc1cccc(-c2c(C)n(Cc3c(F)cccc3F)c(=O)n(CCN(C)CCc3cccc(Cl)n3)c2=O)c1` [1-11] the figure was less than 100 nM; with `COc1cccc(-c2c(C)n(Cc3c(F)cccc3F)c(=O)n(CCN(CCc3ccccn3)CC3CC3)c2=O)c1` [1-12], less than 100 nM; with `CCN1CCC(N(CC)CCn2c(=O)c(-c3cccc(OC)c3)c(C)n(Cc3c(F)cccc3F)c2=O)C1` (stereo not shown) [1-13], less than 100 nM.
In the case of `Cc1c(-c2ccc3c(c2)OCO3)c(=O)n(CCN(C)CCc2ccccn2)c(=O)n1Cc1c(F)cccc1F` [3-1], the Ki was less than 100 nM.
Consider `CCN(CCc1ccccn1)CCn1c(=O)c(-c2ccc3c(c2)OCO3)c(C)n(Cc2c(F)cccc2F)c1=O` [3-4], for which the inhibition constant (Ki) was less than 100 nM.
For `Cc1c(-c2ccccc2F)c(=O)n(CCN(C)CCc2ccccn2)c(=O)n1Cc1c(F)cccc1F` [6-1], the Ki is less than 100 nM.
Same read-out and setting: with `Cc1c(-c2ccc(Oc3ccccc3)cc2)c(=O)n(CCN(C)CCc2ccccn2)c(=O)n1Cc1c(F)cccc1F` [6-2] the figure was less than 100 nM.
On the same count and under the same terms, with `Cc1c(-c2ccc3c(c2)OCCO3)c(=O)n(CCN(C)CCc2ccccn2)c(=O)n1Cc1c(F)cccc1F` [6-3] the figure was less than 100 nM; with `Cc1c(-c2ccc(NC(=O)OCC(C)C)cc2)c(=O)n(CCN(C)CCc2ccccn2)c(=O)n1Cc1c(F)cccc1F` [6-8], less than 100 nM.
The same measure, in the same setting: with `COc1cccc(-c2c(C)n(Cc3c(F)cccc3F)c(=O)n(CCN3CCC(N4CCCC4)CC3)c2=O)c1` [7-2] the figure was less than 100 nM; with `COc1cccc(-c2c(C)n(Cc3c(F)cccc3F)c(=O)n(CCN3CCC(NC(=O)C(F)(F)F)C3)c2=O)c1` (stereo not shown) [7-3], less than 100 nM.
Consider `COc1cccc(-c2c(C)n(Cc3c(F)cccc3F)c(=O)n(CCN3CCC(NC(=O)OC(C)(C)C)C3)c2=O)c1` (stereo not shown) [7-4], for which the Ki is less than 100 nM.
The same measure, in the same setting: with `COc1cccc(-c2c(C)n(Cc3c(F)cccc3F)c(=O)n(CCN3CC4CC3CO4)c2=O)c1` (stereo not shown) [7-10] the figure was less than 100 nM.
As for `Cc1cc(=O)n(C[C@@H](N)Cc2ccccc2)c(=O)n1Cc1c(F)cccc1F` [8-4], the Ki is less than 100 nM.
As for `Cc1cc(=O)n(C[C@H](N)Cc2ccccc2)c(=O)n1Cc1c(F)cccc1F` [8-7], the inhibition constant (Ki) is less than 100 nM.
For the compound `Cc1cc(=O)n(C[C@@H](N)CC2CCCCC2)c(=O)n1Cc1c(F)cccc1F` [8-12], the Ki was less than 100 nM.
With `COc1cccc(-c2c(C)n(Cc3c(F)cccc3F)c(=O)n(C[C@H](N)COCc3ccccc3)c2=O)c1F` [8-15], the Ki is less than 100 nM.
Same read-out and setting: the result for `COc1cccc(-c2c(C)n(Cc3c(F)cccc3F)c(=O)n(C[C@@H](N)CC(C)C)c2=O)c1F` [8-23] reads less than 100 nM.
As to `COc1cccc(-c2c(C)n(Cc3c(F)cccc3F)c(=O)n(C[C@H](N)C(C)C)c2=O)c1F` [8-25], the Ki is less than 100 nM.
Still for that read-out and setting: the result for `Cc1cc(-c2c(C)n(Cc3c(F)cccc3F)c(=O)n(C[C@H](N)c3ccccc3)c2=O)ccc1F` [8-44] reads less than 100 nM; that for `COc1cccc(-c2c(C)n(Cc3c(F)cccc3F)c(=O)n(C[C@H](N)C(=O)Nc3ccccc3)c2=O)c1` [8-51], less than 100 nM; that for `COc1ccc(-c2c(C)n(Cc3c(F)cccc3F)c(=O)n(C[C@H](N)c3ccccc3)c2=O)cn1` [8-58], less than 100 nM.
For the compound `CCOc1cccc(-c2c(C)n(Cc3c(F)cccc3F)c(=O)n(C[C@H](N)c3ccccc3)c2=O)c1` [8-59], the Ki is less than 100 nM.
Same read-out and setting: with `CSc1cccc(-c2c(C)n(Cc3c(F)cccc3F)c(=O)n(C[C@H](N)c3ccccc3)c2=O)c1` [8-61] the figure was less than 100 nM; with `COc1cccc(Oc2ccc(-c3c(C)n(Cc4c(F)cccc4F)c(=O)n(C[C@H](N)c4ccccc4)c3=O)cc2)c1` [8-68], less than 100 nM.
`Cc1c(-c2ccc(Oc3cccc(Cl)c3)cc2)c(=O)n(C[C@H](N)c2ccccc2)c(=O)n1Cc1c(F)cccc1F` [8-70]: the inhibition constant (Ki) was less than 100 nM.
For `Cc1c(-c2ccc(Cl)s2)c(=O)n(C[C@H](N)c2ccccc2)c(=O)n1Cc1c(F)cccc1F` [8-75], the inhibition constant (Ki) was less than 100 nM.
Regarding `COc1ccc(-c2c(C)n(Cc3c(F)cccc3F)c(=O)n(C[C@H](N)c3ccccc3)c2=O)cc1` [8-100], the Ki is less than 100 nM.
The same measure, in the same setting: the result for `Cc1ccc(-c2c(C)n(Cc3c(F)cccc3F)c(=O)n(C[C@H](N)c3ccccc3)c2=O)s1` [8-106] reads less than 100 nM.
For `Cc1c(-c2cccs2)c(=O)n(C[C@H](N)c2ccccc2)c(=O)n1Cc1c(F)cccc1F` [8-107], the Ki was less than 100 nM.
On the same count and under the same terms, with `CCNC(=O)[C@@H]1CCCN1CCn1c(=O)c(-c2cccc(OC)c2)c(C)n(Cc2c(F)cccc2F)c1=O` [9-3] the figure was less than 100 nM; with `COc1cccc(-c2c(C)n(Cc3c(F)cccc3F)c(=O)n(CCN3CCC[C@@H]3CO)c2=O)c1` [9-4], less than 100 nM.
`COc1cccc(-c2c(C)n(Cc3c(F)cccc3F)c(=O)n(CCN3CC[C@@H](NC(C)=O)C3)c2=O)c1` [9-7]: the Ki is less than 100 nM.
Regarding `COc1cccc(-c2c(C)n(Cc3c(F)cccc3F)c(=O)n(CC(C)NCCCOCC(C)C)c2=O)c1` (stereo not shown) [9-19], the Ki is less than 100 nM.
For `COc1cccc(-c2c(C)n(Cc3c(F)cccc3F)c(=O)n(CC3CCCN3)c2=O)c1` (stereo not shown) [9-26], the inhibition constant (Ki) is less than 100 nM.
Same read-out and setting: with `Cc1c(-c2ccc(Oc3ccccc3)cc2)c(=O)n(CCNCc2cc(C(F)(F)F)cc(C(F)(F)F)c2)c(=O)n1Cc1c(F)cccc1F` [9-32] the figure was less than 100 nM; with `Cc1c(-c2ccc(Oc3ccccc3)cc2)c(=O)n(CCN2CCN(Cc3ccc4c(c3)OCO4)CC2)c(=O)n1Cc1c(F)cccc1F` [9-35], less than 100 nM.
In the case of `Cc1c(-c2ccc(Oc3ccccc3)cc2)c(=O)n(CCN2CCCC(C(N)=O)C2)c(=O)n1Cc1c(F)cccc1F` (stereo not shown) [9-37], the Ki was less than 100 nM.
For the compound `Cc1c(-c2ccc(Oc3ccccc3)cc2)c(=O)n(CCN(Cc2ccccc2)Cc2ccccc2)c(=O)n1Cc1c(F)cccc1F` [9-39], the Ki is less than 100 nM.
Take `Cc1c(-c2ccc(Oc3ccccc3)cc2)c(=O)n(CCN2CCN(c3cccc(Cl)c3)CC2)c(=O)n1Cc1c(F)cccc1F` [9-40]: the Ki was less than 100 nM.
The same measure, in the same setting: the result for `Cc1c(-c2ccc(Oc3ccccc3)cc2)c(=O)n(CCN2CC[C@@H](NC(=O)C(F)(F)F)C2)c(=O)n1Cc1c(F)cccc1F` [9-42] reads less than 100 nM; that for `Cc1c(-c2ccccc2F)c(=O)n(CCN2CCN(c3cccc(Cl)c3)CC2)c(=O)n1Cc1c(F)cccc1F` [9-56], less than 100 nM.
The same measure, in the same setting: the result for `Cc1c(-c2ccccc2F)c(=O)n(CCN2CCN(C(=O)OCc3ccccc3)CC2)c(=O)n1Cc1c(F)cccc1F` [9-58] reads less than 100 nM.
Still for that read-out and setting: with `Cc1c(-c2ccc3c(c2)OCO3)c(=O)n(CCNCc2cc(C(F)(F)F)cc(C(F)(F)F)c2)c(=O)n1Cc1c(F)cccc1F` [9-63] the figure was less than 100 nM.
`Cc1c(-c2ccc3c(c2)OCO3)c(=O)n(CCNCCN(C(C)C)C(C)C)c(=O)n1Cc1c(F)cccc1F` [9-64]: the inhibitory constant (Ki) was less than 100 nM.
As to `Cc1c(-c2ccc3c(c2)OCO3)c(=O)n(CCN2CCN(c3cccc(Cl)c3)CC2)c(=O)n1Cc1c(F)cccc1F` [9-70], the Ki was less than 100 nM.
On the same count and under the same terms, the result for `Cc1c(-c2ccc(C(C)C)cc2)c(=O)n(CCN2CCN(c3cccc(Cl)c3)CC2)c(=O)n1Cc1c(F)cccc1F` [9-85] reads less than 100 nM; that for `CCCN(CCn1c(=O)c(-c2ccc(C(C)C)cc2)c(C)n(Cc2c(F)cccc2F)c1=O)C(C)CC` (stereo not shown) [9-86], less than 100 nM.
Still for that read-out and setting: with `Cc1c(-c2ccc3c(c2)OCCO3)c(=O)n(CCN2CCN(Cc3ccc4c(c3)OCO4)CC2)c(=O)n1Cc1c(F)cccc1F` [9-95] the figure was less than 100 nM.
Turning to `Cc1c(-c2ccc3c(c2)OCCO3)c(=O)n(CCN2CC(C)OC(C)C2)c(=O)n1Cc1c(F)cccc1F` (stereo not shown) [9-96], the Ki was less than 100 nM.
In the case of `COc1cccc(-c2c(C)n(Cc3c(F)cccc3F)c(=O)n(CC(C)NCc3ccccn3)c2=O)c1` (stereo not shown) [9-109], the Ki was less than 100 nM.
Same read-out and setting: the result for `CCC(C)NC(=O)[C@@H]1CCCN1CCn1c(=O)c(-c2cccc(OC)c2)c(C)n(Cc2c(F)cccc2F)c1=O` (stereo partly shown) [9-112] reads less than 100 nM; that for `Cc1c(-c2ccc(Oc3ccccc3)cc2)c(=O)n(CCNCC(F)(F)F)c(=O)n1Cc1c(F)cccc1F` [9-138], less than 100 nM.
Still for that read-out and setting: the result for `Cc1c(-c2ccc(Oc3ccccc3)cc2)c(=O)n(CCNCCC(c2ccccc2)c2ccccc2)c(=O)n1Cc1c(F)cccc1F` [9-140] reads less than 100 nM.
